#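 Five compound concentrations were applied to cells in 96-well plates for 48 hours; endpoints were derived by simple linear interpolation of the resulting dose-response curve. GI50 marks 50% less growth. TGI: total growth inhibition.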
# Columns and labels:
# Assay in all cases: NCI tumour cell line growth inhibition, 48 h
# SN12C renal = test system: SN12C renal
# U251 CNS = test system: U251 CNS
# COLO 205 colon = test system: COLO 205 colon
# SK-MEL-5 melanoma = test system: SK-MEL-5 melanoma
# SF-295 CNS = test system: SF-295 CNS
# OVCAR-4 ovarian = test system: OVCAR-4 ovarian
# HOP-62 NSCLC = test system: HOP-62 NSCLC
# CCRF-CEM leukemia = test system: CCRF-CEM leukemia
# SNB-75 CNS = test system: SNB-75 CNS
# RPMI-8226 leukemia = test system: RPMI-8226 leukemia
# RXF 393 renal = test system: RXF 393 renal
# PC-3 prostate = test system: PC-3 prostate
# HL-60(TB) leukemia = test system: HL-60(TB) leukemia
# MOLT-4 leukemia = test system: MOLT-4 leukemia
# OVCAR-3 ovarian = test system: OVCAR-3 ovarian
# SF-268 CNS = test system: SF-268 CNS
# A549 NSCLC = test system: A549 NSCLC
# HOP-92 NSCLC = test system: HOP-92 NSCLC
# SK-OV-3 ovarian = test system: SK-OV-3 ovarian
# SR leukemia = test system: SR leukemia
# 786-0 renal = test system: 786-0 renal
# NCI-H226 lung = test system: NCI-H226 lung
# OVCAR-5 ovarian = test system: OVCAR-5 ovarian
# OVCAR-8 ovarian = test system: OVCAR-8 ovarian
# MALME-3M melanoma = test system: MALME-3M melanoma
# CAKI-1 renal = test system: CAKI-1 renal
# SK-MEL-28 melanoma = test system: SK-MEL-28 melanoma
# EKVX NSCLC = test system: EKVX NSCLC
# T-47D breast = test system: T-47D breast
# A498 renal = test system: A498 renal
# UACC-257 melanoma = test system: UACC-257 melanoma
# SNB-19 CNS = test system: SNB-19 CNS
# MDA-MB-435 = test system: MDA-MB-435
# NCI-H23 lung = test system: NCI-H23 lung
# HCC-2998 colon = test system: HCC-2998 colon
# HCT-116 colon = test system: HCT-116 colon
# SW-620 colon = test system: SW-620 colon
# BT-549 breast = test system: BT-549 breast
# HT29 colon = test system: HT29 colon
# UACC-62 melanoma = test system: UACC-62 melanoma
# LOX IMVI melanoma = test system: LOX IMVI melanoma
# M14 melanoma = test system: M14 melanoma
# DU-145 prostate = test system: DU-145 prostate
# UO-31 renal = test system: UO-31 renal
# NCI-H460 lung = test system: NCI-H460 lung
# SF-539 CNS = test system: SF-539 CNS
# ACHN renal = test system: ACHN renal
# KM12 colon = test system: KM12 colon
# K-562 leukemia = test system: K-562 leukemia
# NCI-H522 lung = test system: NCI-H522 lung
# TK-10 renal = test system: TK-10 renal
# NCI/ADR-RES ovarian = test system: NCI/ADR-RES ovarian
# MDA-MB-231 breast = test system: MDA-MB-231 breast
# IGROV1 ovarian = test system: IGROV1 ovarian
# MCF7 breast = test system: MCF7 breast
# MDA-MB-468 breast = test system: MDA-MB-468 breast
# HCT-15 colon = test system: HCT-15 colon
# HS 578T breast = test system: HS 578T breast
# SK-MEL-2 melanoma = test system: SK-MEL-2 melanoma
compound,measurement,setting,value
COc1ccc2oc3c4[nH]c5ccccc5c4c4c(c3c2c1)C(=O)N(C(=O)OC(C)(C)C)C4=O,GI50,SN12C renal,2.25 µM
same,TGI,SN12C renal,37.2 µM
same,GI50,U251 CNS,2.86 µM
same,TGI,U251 CNS,28.2 µM
same,GI50,COLO 205 colon,3.03 µM
same,TGI,COLO 205 colon,10.3 µM
same,GI50,SK-MEL-5 melanoma,4.09 µM
same,TGI,SK-MEL-5 melanoma,16.1 µM
same,GI50,SF-295 CNS,2.62 µM
same,TGI,SF-295 CNS,10.9 µM
same,GI50,OVCAR-4 ovarian,4.18 µM
same,TGI,OVCAR-4 ovarian,89.2 µM
same,GI50,HOP-62 NSCLC,2.45 µM
same,TGI,HOP-62 NSCLC,12.2 µM
same,GI50,CCRF-CEM leukemia,2.65 µM
same,TGI,CCRF-CEM leukemia,> 100 µM
same,GI50,SNB-75 CNS,3.07 µM
same,TGI,SNB-75 CNS,33.8 µM
same,GI50,RPMI-8226 leukemia,1.83 µM
same,TGI,RPMI-8226 leukemia,8.29 µM
same,GI50,RXF 393 renal,3.12 µM
same,TGI,RXF 393 renal,19.2 µM
same,GI50,PC-3 prostate,1.88 µM
same,TGI,PC-3 prostate,> 100 µM
same,GI50,HL-60(TB) leukemia,2.28 µM
same,TGI,HL-60(TB) leukemia,9.07 µM
same,GI50,MOLT-4 leukemia,1.47 µM
same,TGI,MOLT-4 leukemia,5.01 µM
same,GI50,OVCAR-3 ovarian,3.72 µM
same,TGI,OVCAR-3 ovarian,16.7 µM
same,GI50,SF-268 CNS,3.11 µM
same,TGI,SF-268 CNS,41.6 µM
same,GI50,A549 NSCLC,2.84 µM
same,TGI,A549 NSCLC,49.3 µM
same,GI50,HOP-92 NSCLC,2.64 µM
same,TGI,HOP-92 NSCLC,41.3 µM
same,GI50,SK-OV-3 ovarian,2.59 µM
same,TGI,SK-OV-3 ovarian,24.3 µM
same,GI50,SR leukemia,1.59 µM
same,TGI,SR leukemia,> 100 µM
same,GI50,786-0 renal,3.65 µM
same,TGI,786-0 renal,> 100 µM
same,GI50,NCI-H226 lung,2.52 µM
same,TGI,NCI-H226 lung,24.1 µM
same,GI50,OVCAR-5 ovarian,2.06 µM
same,TGI,OVCAR-5 ovarian,31 µM
same,GI50,OVCAR-8 ovarian,2.4 µM
same,TGI,OVCAR-8 ovarian,11.1 µM
same,GI50,MALME-3M melanoma,1.91 µM
same,TGI,MALME-3M melanoma,11.3 µM
same,GI50,CAKI-1 renal,2.59 µM
same,TGI,CAKI-1 renal,37.4 µM
same,GI50,SK-MEL-28 melanoma,1.67 µM
same,TGI,SK-MEL-28 melanoma,5.18 µM
same,GI50,EKVX NSCLC,3.33 µM
same,TGI,EKVX NSCLC,32.2 µM
same,GI50,T-47D breast,1.28 µM
same,TGI,T-47D breast,7.23 µM
same,GI50,A498 renal,1.47 µM
same,TGI,A498 renal,9.77 µM
same,GI50,UACC-257 melanoma,2.49 µM
same,TGI,UACC-257 melanoma,9.3 µM
same,GI50,SNB-19 CNS,4.21 µM
same,TGI,SNB-19 CNS,> 100 µM
same,GI50,MDA-MB-435,1.43 µM
same,TGI,MDA-MB-435,18.3 µM
same,GI50,NCI-H23 lung,2.1 µM
same,TGI,NCI-H23 lung,10.6 µM
same,GI50,HCC-2998 colon,3.98 µM
same,TGI,HCC-2998 colon,> 100 µM
same,GI50,HCT-116 colon,3.06 µM
same,TGI,HCT-116 colon,24.2 µM
same,GI50,SW-620 colon,2.33 µM
same,TGI,SW-620 colon,> 100 µM
same,GI50,BT-549 breast,2.09 µM
same,TGI,BT-549 breast,10.1 µM
same,GI50,HT29 colon,2.98 µM
same,TGI,HT29 colon,> 100 µM
same,GI50,UACC-62 melanoma,2.4 µM
same,TGI,UACC-62 melanoma,11.9 µM
same,GI50,LOX IMVI melanoma,3.05 µM
same,TGI,LOX IMVI melanoma,14.1 µM
same,GI50,M14 melanoma,1.22 µM
same,TGI,M14 melanoma,5 µM
same,GI50,DU-145 prostate,3.26 µM
same,TGI,DU-145 prostate,> 100 µM
same,GI50,UO-31 renal,0.9 µM
same,TGI,UO-31 renal,25.8 µM
same,GI50,NCI-H460 lung,2.32 µM
same,TGI,NCI-H460 lung,> 100 µM
same,GI50,SF-539 CNS,3.12 µM
same,TGI,SF-539 CNS,11.5 µM
same,GI50,ACHN renal,1.49 µM
same,TGI,ACHN renal,9.22 µM
same,GI50,KM12 colon,0.578 µM
same,TGI,KM12 colon,9.28 µM
same,GI50,K-562 leukemia,2.79 µM
same,TGI,K-562 leukemia,> 100 µM
same,GI50,NCI-H522 lung,2.2 µM
same,TGI,NCI-H522 lung,11.6 µM
same,GI50,TK-10 renal,2.56 µM
same,TGI,TK-10 renal,> 100 µM
same,GI50,NCI/ADR-RES ovarian,2.6 µM
same,TGI,NCI/ADR-RES ovarian,15.4 µM
same,GI50,MDA-MB-231 breast,6.45 µM
same,TGI,MDA-MB-231 breast,> 100 µM
same,GI50,IGROV1 ovarian,2.4 µM
same,TGI,IGROV1 ovarian,27.6 µM
same,GI50,MCF7 breast,1.43 µM
same,TGI,MCF7 breast,12.8 µM
same,GI50,MDA-MB-468 breast,2.84 µM
same,TGI,MDA-MB-468 breast,22 µM
same,GI50,HCT-15 colon,2.12 µM
same,TGI,HCT-15 colon,10.4 µM
same,GI50,HS 578T breast,2.5 µM
same,TGI,HS 578T breast,12.4 µM
same,GI50,SK-MEL-2 melanoma,2.84 µM
same,TGI,SK-MEL-2 melanoma,10.2 µM
